This is an account of results in ChEMBL document CHEMBL1201862, “PubChem BioAssay data set” (2004).

Among the test systems are 786-0; CAKI-1; CCRF-CEM; HCT-15; K562; KM-20L2; LOX IMVI; MOLT-4; OVCAR-5; RPMI-8226; SF-268; SK-MEL-2; SNB-19; U-251; UACC-62; EKVX; BT-549; MCF7; MDA-N; NCI/ADR-RES.
Common to all, as to experiment: inhibition of tumour cell growth, NCI panel, 48 h

SMILES strings stand for the structures.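 Interpolation was linear, between the two tested concentrations surrounding the appropriate level; five concentrations were tested over 48 hours in 96-well plates. Abbreviation: GI50, concentration required for 50% inhibition of growth.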 Calls of active or inactive are those of the source. Cut-off read from the data, not from the text of the source: active = GI50 up to about 1.1 µM and inactive = higher.

Regarding `O=C(O)[C@@H](NS(=O)(=O)c1ccc2ccccc2c1)c1ccccc1`, the GI50 in the assay with 786-0 was > 100 µM (inactive); with CAKI-1, > 100 µM (inactive); with CCRF-CEM, > 100 µM (inactive); with HCT-15, more than 100 µM; with K562, > 100 µM (inactive); in the assay with KM-20L2, > 100 µM (inactive). Moreover, the GI50 with LOX IMVI, in the assay with MOLT-4, with OVCAR-5, in the assay on RPMI-8226, in the assay on SF-268 and with SK-MEL-2 was > 100 µM (inactive) each time. In addition, the GI50 in the assay on SNB-19, in the assay on U-251 and in the assay with UACC-62 was > 100 µM (inactive) each time.
On to `CN1C(=O)N(C)C2(O)c3ccccc3C(=O)C12O` (centres undefined), for which the GI50 is > 100 µM (inactive) in the assay on 786-0; > 100 µM (inactive) in the assay with CAKI-1; > 100 µM (inactive) with CCRF-CEM; > 100 µM (inactive) in the assay with EKVX; more than 100 µM with HCT-15; > 100 µM (inactive) with K562. For the same molecule, the GI50 in the assay on KM-20L2, in the assay on LOX IMVI, in the assay on MOLT-4, in the assay on OVCAR-5, in the assay with RPMI-8226 and in the assay on SF-268 was > 100 µM (inactive) in each case. For the same molecule, the GI50 with SK-MEL-2, in the assay on SNB-19, with U-251 and in the assay with UACC-62 was > 100 µM (inactive) each time.
Consider `CC(=O)Nc1ccc(/C=C/C(=O)c2sc(C(N)=S)nc2C)cc1`, for which the GI50 is > 100 µM (inactive) in the assay with 786-0; > 100 µM (inactive) with CAKI-1; 81.1 µM (inactive) in the assay on CCRF-CEM; > 100 µM (inactive) with EKVX; more than 100 µM in the assay on HCT-15; > 100 µM (inactive) in the assay with K562. Also, the GI50 in the assay with KM-20L2, in the assay with LOX IMVI, in the assay on MOLT-4, with OVCAR-5, in the assay on RPMI-8226 and in the assay with SF-268 was > 100 µM (inactive) in each case. The GI50 in the assay on SK-MEL-2, with U-251 and in the assay on UACC-62 was > 100 µM (inactive) throughout.
As to `CCOC(=O)c1sc2c(sc(=O)n2-c2ccccc2)c1O`, the GI50 is > 100 µM (inactive) in the assay with 786-0; > 100 µM (inactive) in the assay with CAKI-1; 45 µM (inactive) with CCRF-CEM; > 100 µM (inactive) in the assay on EKVX; more than 100 µM in the assay with HCT-15; > 100 µM (inactive) with K562. The GI50 in the assay on KM-20L2 is > 100 µM (inactive); in the assay on LOX IMVI, 55.7 µM (inactive); in the assay on MOLT-4, > 100 µM (inactive); in the assay on OVCAR-5, > 100 µM (inactive); in the assay with SF-268, > 100 µM (inactive); in the assay with SK-MEL-2 it was > 100 µM (inactive). Moreover, the GI50 in the assay with SNB-19, with U-251 and with UACC-62 was > 100 µM (inactive) throughout.
For the molecule `N#CCCn1c(S)nnc1CCC(=O)Nc1ccc(Cl)cc1Cl`, the GI50 with 786-0 is > 100 µM (inactive); in the assay on CAKI-1, > 100 µM (inactive); in the assay with CCRF-CEM it was 52.6 µM (inactive); in the assay with HCT-15, more than 100 µM; with K562, 41.4 µM (inactive); in the assay with KM-20L2 it was > 100 µM (inactive). Moreover, the GI50 with LOX IMVI is 71.6 µM (inactive); with MOLT-4, > 100 µM (inactive); in the assay on OVCAR-5, > 100 µM (inactive); in the assay on RPMI-8226, > 100 µM (inactive); in the assay on SF-268, > 100 µM (inactive); with SK-MEL-2 it was > 100 µM (inactive). Further, the GI50 with SNB-19, in the assay on U-251 and in the assay on UACC-62 was > 100 µM (inactive) in each case.
`O=c1oc(=O)c2oc3ccccc3oc1=2`: the GI50 in the assay with 786-0 is > 100 µM (inactive); with CAKI-1, > 100 µM (inactive); in the assay with CCRF-CEM, > 100 µM (inactive); with EKVX it was > 100 µM (inactive); with HCT-15, more than 100 µM; with K562 it was > 100 µM (inactive). Moreover, the GI50 with KM-20L2, with LOX IMVI, with MOLT-4, with OVCAR-5, in the assay on SF-268 and in the assay on SK-MEL-2 was > 100 µM (inactive) throughout. For the same molecule, the GI50 in the assay on SNB-19, with U-251 and with UACC-62 was > 100 µM (inactive) each time.
In the case of `COC(=O)C(=O)C(C(=O)C=C(C)C)C(=O)C(=O)Nc1nc2ccc([N+](=O)[O-])cc2s1` (centres undefined), the GI50 is > 100 µM (inactive) in the assay on 786-0; 29.5 µM (inactive) with CAKI-1; 38.7 µM (inactive) with CCRF-CEM; 33.9 µM (inactive) in the assay on EKVX; 50.6 µM with HCT-15; 46.2 µM (inactive) in the assay on K562. Moreover, the GI50 in the assay on KM-20L2 is > 100 µM (inactive); in the assay with LOX IMVI it was 56.4 µM (inactive); in the assay on MOLT-4, 36.4 µM (inactive); in the assay on OVCAR-5 it was > 100 µM (inactive); in the assay on RPMI-8226, 28.4 µM (inactive); in the assay on SF-268, 39 µM (inactive). Besides, the GI50 in the assay on SK-MEL-2 was 49.5 µM (inactive); in the assay on SNB-19, > 100 µM (inactive); in the assay on U-251 it was 49.8 µM (inactive); with UACC-62, 38.5 µM (inactive).
For `O=C1/C(=C/c2ccc3c(c2)OCO3)SC2C=Nc3ccccc3N12` (centres undefined), the GI50 was > 100 µM (inactive) in the assay on 786-0; > 100 µM (inactive) with CAKI-1; > 100 µM (inactive) in the assay with EKVX; more than 100 µM in the assay with HCT-15; > 100 µM (inactive) in the assay on KM-20L2; > 10 µM (inactive) with LOX IMVI. The GI50 in the assay on MOLT-4, in the assay with OVCAR-5, with SF-268, with SK-MEL-2, in the assay with SNB-19 and in the assay on U-251 was > 100 µM (inactive) in each case. In the assay on UACC-62, the GI50 is 54.8 µM (inactive).
Take `COC(=O)C(CCC#N)(CCC#N)C(=O)OC`: the GI50 in the assay on 786-0 is > 100 µM (inactive); with CCRF-CEM, > 100 µM (inactive); in the assay on EKVX, > 100 µM (inactive); in the assay on HCT-15, more than 100 µM; in the assay with K562, > 100 µM (inactive); with KM-20L2, > 100 µM (inactive). The GI50 in the assay with LOX IMVI, with MOLT-4, in the assay on RPMI-8226, in the assay with SF-268, with SNB-19 and in the assay with U-251 was > 100 µM (inactive) in each case. In the assay on UACC-62, the GI50 is > 100 µM (inactive).
Turning to `OCC(O)C(OC1OC(CO)C(O)C(O)C1O)c1nn(-c2ccccc2)c2nc3cc(Cl)ccc3nc12` (centres undefined), the GI50 in the assay on 786-0 is > 100 µM (inactive); in the assay with CCRF-CEM, > 100 µM (inactive); in the assay on EKVX, > 100 µM (inactive); in the assay on HCT-15 it was more than 100 µM; in the assay on K562, > 100 µM (inactive); in the assay on KM-20L2, > 100 µM (inactive). In addition, the GI50 in the assay with LOX IMVI, with MOLT-4, in the assay with OVCAR-5, in the assay on RPMI-8226, with SF-268 and in the assay with SNB-19 was > 100 µM (inactive) each time. Also, the GI50 in the assay with U-251 and in the assay on UACC-62 was > 100 µM (inactive) throughout.
In the case of `CC(C)(CN1CCCCC1)C(=O)CC(SCCS(=O)(=O)O)c1ccc(Br)cc1` (centres undefined), the GI50 in the assay on 786-0 is 1.26 µM (inactive); with CAKI-1 it was 2.4 µM (inactive); with EKVX it was 2.92 µM (inactive); in the assay on HCT-15, 2.82 µM; in the assay with K562, 1.21 µM (inactive); with KM-20L2, 1.58 µM (inactive). In addition, the GI50 is 2.23 µM (inactive) in the assay on MOLT-4; 2.8 µM (inactive) in the assay with OVCAR-5; 1.94 µM (inactive) in the assay with RPMI-8226; 2.61 µM (inactive) with SF-268; 2.32 µM (inactive) in the assay with SK-MEL-2; 2.34 µM (inactive) in the assay with SNB-19. Also, the GI50 with U-251 was 1.56 µM (inactive); in the assay on UACC-62, 1.84 µM (inactive).
On to `CCOC(=O)[C@H](CO)NC1=C(Cl)C(=O)c2c(O)ccc(O)c2C1=O`, for which the GI50 is > 10 µM (inactive) in the assay on 786-0; > 10 µM (inactive) in the assay on BT-549; > 10 µM (inactive) with CAKI-1; > 10 µM (inactive) with CCRF-CEM; > 10 µM (inactive) with EKVX; more than 10 µM in the assay with HCT-15. Further, the GI50 in the assay with K562 was > 10 µM (inactive); with LOX IMVI, > 10 µM (inactive); in the assay on MCF7, 3.21 µM (inactive); with MDA-N, > 10 µM (inactive); in the assay with MOLT-4 it was > 10 µM (inactive); in the assay with NCI/ADR-RES it was > 10 µM (inactive). In addition, the GI50 in the assay on OVCAR-5, in the assay on RPMI-8226, in the assay on SF-268, in the assay with SK-MEL-2, in the assay with SNB-19 and in the assay on U-251 was > 10 µM (inactive) each time. For the same molecule, the GI50 with UACC-62 is > 10 µM (inactive).
Take `CCCCc1ccc(Nc2nc(Cl)c3c(ncn3C3CC(Oc4ccc(C)cc4)C(COc4ccc(C)cc4)O3)n2)cc1` (centres undefined): the GI50 with 786-0 is > 100 µM (inactive); in the assay on BT-549, > 100 µM (inactive); with CAKI-1, > 100 µM (inactive); with CCRF-CEM, > 100 µM (inactive); in the assay on EKVX, > 100 µM (inactive); in the assay on HCT-15 it was more than 100 µM. For the same molecule, the GI50 is > 100 µM (inactive) in the assay on K562; > 100 µM (inactive) in the assay on LOX IMVI; 39.3 µM (inactive) with MCF7; > 100 µM (inactive) in the assay with MDA-N; 33.9 µM (inactive) with MOLT-4; > 100 µM (inactive) in the assay on NCI/ADR-RES. The GI50 in the assay on OVCAR-5, with RPMI-8226, with SF-268, with SK-MEL-2, with SNB-19 and in the assay with U-251 was > 100 µM (inactive) in each case. Moreover, in the assay with UACC-62, the GI50 is > 100 µM (inactive).
